Legend:
Type in all cases: in vivo
Amaranthus retroflexus = test: Post-emergence herbicidal activity against AMARE; details: Amaranthus retroflexus, 504 h, dosage 320 g/ha, rated about 3 weeks after treatment
Description: (§1) AMARE: Amaranthus retroflexus AVEFA: Avena fatua 2. Post-Emergence Herbicidal Action and Crop Plant Compatibility Seeds of monocotyledonous and dicotyledonous weeds and crop plants are placed in sandy loam in plastic or wood-fiber pots, covered with soil and cultivated in a greenhouse under controlled growth conditions. 2 to 3 weeks after sowing, the test plants are treated at the one-leaf stage. The compounds of the invention, formulated in the form of wettable powders (WP) or as emulsion concentrates (EC), are then sprayed onto the green parts of the plants as aqueous suspension or emulsion with addition of 0.5% additive at a water application rate of 600 l/ha (converted). After the test plants had been kept in the greenhouse under optimum growth conditions for about 3 weeks, the activity of the preparations is rated visually in comparison to untreated controls. For example, 100% activity=the plants have died, 0% activity=like control plants.

[1] = Post-emergence treatment, summary over harmful plants; details: 504 h, application rate of 0.32 kg of active substance or less per hectare, read-out: herbicidal action, post-emergence treatment (very good herbicidal activity)
Description: 2. Post-Emergence Herbicidal Action and Crop Plant Compatibility
as §1, with “Seeds” for “AMARE: Amaranthus retroflexus AVEFA: Avena fatua 2. Post-Emergence Herbicidal Action and Crop Plant Compatibility Seeds”
As shown by the results, compounds according to the invention such as, for example, the compounds No. I-35 and other compounds from the tables (for example I-28, I-38, I-01, I-19, I-36, I-29, I-32, I-11, I-12, I-37, I-06, I-09, I-33, I-34, I-13, I-04, I-26, I-21, I-30, I-05, I-03, I-20, I-27, I-14, I-10, I-23, I-07, I-25, I-02, I-08, I-24, I-41, I-42, I-43, I-44, I-46, I-49, I-54, I-55, I-56) have, when used for post-emergence treatment, very good herbicidal activity (80% to 100% herbicidal action) against harmful plants such as Abutilon theophrasti, Alopecurus myosuroides, Amaranthus retroflexus, Avena fatua, Echinochloa crus-galli, Hordeum murinum, Lolium rigidum, Pharbitis purpurea, Polygonum convolvulus, Setaria viridis, Stellaria media, Veronica persica and Viola tricolor at an application rate of 0.32 kg of active substance or less per hectare.

Pharbitis purpurea = test: Post-emergence herbicidal activity against PHBPU; details: Ipomoea purpurea, 504 h, dosage 320 g/ha, rated about 3 weeks after treatment
Method in brief: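 Greenhouse-grown plants sprayed post-emergence at the one-leaf stage, 2 to 3 weeks after sowing, with WP or EC formulations plus 0.5% additive at 600 l/ha water. Activity rated visually after about 3 weeks versus untreated controls (100% = plants dead, 0% = like control).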

Veronica persica = test: Post-emergence herbicidal activity against VERPE; details: Veronica persica, 504 h, dosage 320 g/ha
Method in brief: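 Greenhouse plants treated at one-leaf stage, 2–3 weeks after sowing, by spraying WP or EC formulations with 0.5% additive at 600 l/ha water. Visual rating about 3 weeks later versus untreated controls (100% = plants dead, 0% = like controls).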

Stellaria media = test: Pre-emergence herbicidal activity against STEME; details: Stellaria media, 504 h, dosage 80 g/ha
Text: (§2) 1. Pre-Emergence Herbicidal Action and Crop Plant Compatibility Seeds of monocotyledonous and dicotyledonous weed plants and crop plants are placed in plastic or wood fiber pots and covered with soil. The compounds of the invention, formulated in the form of wettable powders (WP) or as emulsion concentrates (EC), are then applied onto the surface of the covering soil as aqueous suspension or emulsion with addition of 0.5% additive at a water application rate of 600 l/ha (converted). After the treatment, the pots are placed in a greenhouse and kept under good growth conditions for the trial plants. After about 3 weeks, the effect of the preparations is scored visually in comparison with untreated controls as percentages. For example, 100% activity=the plants have died, 0% activity=like control plants. STEME: Stellaria media VERPE: Veronica persica

Polygonum convolvulus = test: Pre-emergence herbicidal activity against POLCO; details: Fallopia convolvulus, 504 h, dosage 80 g/ha
Text: as §2, with “POLCO: Polygonum convolvulus SETVI: Setaria viridis” for “STEME: Stellaria media VERPE: Veronica persica”

COC(=O)[C@H]1C[C@H](NC(=O)[C@@]2(C)CC(c3cc(F)cc(F)c3)=NO2)CO1 (mixture of isomers) [I-55, methyl trans-4-[[(5R)-3-(3,5-difluorophenyl)-5-methyl-4H-isoxazole-5-carbonyl]amino]tetrahydrofuran-2-carboxylate]
pest or weed control at 320 g/ha (Amaranthus retroflexus): 80% | pest or weed control at 320 g/ha [1]: 80 to 100% | pest or weed control at 320 g/ha (Pharbitis purpurea): 90% | pest or weed control at 320 g/ha (Veronica persica): 90%

C=C[C@]1(C(=O)N[C@@H]2CO[C@@H](C(=O)OC)C2)CC(c2cc(F)cc(F)c2)=NO1 (mixture of isomers) [I-56, methyl trans-4-[[(5S)-3-(3,5-difluorophenyl)-5-vinyl-4H-isoxazole-5-carbonyl]amino]tetrahydrofuran-2-carboxylate]
pest or weed control at 320 g/ha (Amaranthus retroflexus): 90% | pest or weed control at 320 g/ha [1]: 80 to 100% | pest or weed control at 320 g/ha (Pharbitis purpurea): 90% | pest or weed control at 320 g/ha (Veronica persica): 90%

COC(=O)[C@H]1C[C@@H](NC(=O)C2(C)CC(c3cc(F)cc(F)c3)=NO2)CO1 (relative stereo) [I-01, methyl cis-4-[[3-(3,5-difluorophenyl)-5-methyl-4H-isoxazole-5-carbonyl]amino]tetrahydrofuran-2-carboxylate]
pest or weed control at 320 g/ha (Amaranthus retroflexus): 80% | pest or weed control at 320 g/ha [1]: 80 to 100% | pest or weed control at 320 g/ha (Pharbitis purpurea): 90% | pest or weed control at 80 g/ha (Stellaria media): 90% | pest or weed control at 320 g/ha (Veronica persica): 80% | pest or weed control at 80 g/ha (Polygonum convolvulus): 80%

C=CC1(C(=O)N[C@H]2CO[C@@H](C(=O)OC)C2)CC(c2cc(Cl)cc(Cl)c2)=NO1 (relative stereo) [I-03, methyl cis-4-[[3-(3,5-dichlorophenyl)-5-vinyl-4H-isoxazole-5-carbonyl]amino]tetrahydrofuran-2-carboxylate]
pest or weed control at 320 g/ha [1]: 80 to 100% | pest or weed control at 320 g/ha (Pharbitis purpurea): 90% | pest or weed control at 320 g/ha (Veronica persica): 80% | pest or weed control at 80 g/ha (Polygonum convolvulus): 80%

COC(=O)[C@H]1C[C@@H](NC(=O)C2(C)CC(c3cc(C)cc(Br)c3)=NO2)CO1 (relative stereo) [I-04, methyl cis-4-[[3-(3-bromo-5-methylphenyl)-5-methyl-4H-isoxazole-5-carbonyl]amino]tetrahydrofuran-2-carboxylate]
pest or weed control at 320 g/ha [1]: 80 to 100% | pest or weed control at 320 g/ha (Pharbitis purpurea): 90% | pest or weed control at 320 g/ha (Veronica persica): 80% | pest or weed control at 80 g/ha (Polygonum convolvulus): 90%

COC(=O)[C@H]1C[C@@H](NC(=O)C2(C(F)(F)F)CC(c3cc(F)cc(F)c3)=NO2)CO1 (relative stereo) [I-06, methyl cis-4-[[3-(3,5-difluorophenyl)-5-(trifluoromethyl)-4H-isoxazole-5-carbonyl]amino]tetrahydrofuran-2-carboxylate]
pest or weed control at 320 g/ha (Amaranthus retroflexus): 80% | pest or weed control at 320 g/ha [1]: 80 to 100% | pest or weed control at 320 g/ha (Pharbitis purpurea): 90% | pest or weed control at 320 g/ha (Veronica persica): 80% | pest or weed control at 80 g/ha (Polygonum convolvulus): 100%

C=CC1(C(=O)N[C@H]2CO[C@@H](C(=O)OC)C2)CC(c2cccc(F)c2)=NO1 (relative stereo) [I-07, methyl cis-4-[[3-(3-fluorophenyl)-5-vinyl-4H-isoxazole-5-carbonyl]amino]tetrahydrofuran-2-carboxylate]
pest or weed control at 320 g/ha [1]: 80 to 100% | pest or weed control at 320 g/ha (Pharbitis purpurea): 90% | pest or weed control at 320 g/ha (Veronica persica): 80% | pest or weed control at 80 g/ha (Polygonum convolvulus): 80%

COC(=O)[C@H]1C[C@@H](NC(=O)C2(OC)CC(c3cc(C)cc(Br)c3)=NO2)CO1 (relative stereo) [I-08, methyl cis-4-[[3-(3-bromo-5-methylphenyl)-5-methoxy-4H-isoxazole-5-carbonyl]amino]tetrahydrofuran-2-carboxylate]
pest or weed control at 320 g/ha [1]: 80 to 100% | pest or weed control at 320 g/ha (Pharbitis purpurea): 90% | pest or weed control at 320 g/ha (Veronica persica): 80% | pest or weed control at 80 g/ha (Polygonum convolvulus): 80%

COC(=O)[C@H]1C[C@@H](NC(=O)C2(OC)CC(c3ccccc3)=NO2)CO1 (relative stereo) [I-14, methyl cis-4-[(5-methoxy-3-phenyl-4H-isoxazole-5-carbonyl)amino]tetrahydrofuran-2-carboxylate]
pest or weed control at 320 g/ha [1]: 80 to 100% | pest or weed control at 320 g/ha (Pharbitis purpurea): 80% | pest or weed control at 320 g/ha (Veronica persica): 80%

C=CC1(C(=O)NC2=C(C(=O)OCC)COC2)CC(c2cc(F)cc(F)c2)=NO1 (stereo not drawn) [I-23, ethyl 4-[[3-(3,5-difluorophenyl)-5-vinyl-4H-isoxazole-5-carbonyl]amino]-2,5-dihydrofuran-3-carboxylate]
pest or weed control at 320 g/ha (Amaranthus retroflexus): 80% | pest or weed control at 320 g/ha [1]: 80 to 100% | pest or weed control at 320 g/ha (Pharbitis purpurea): 90%

COC(=O)C1COCC1NC(=O)C1(OC)CC(c2cc(F)cc(F)c2)=NO1 (stereo not drawn) [I-27, methyl 4-[[3-(3,5-difluorophenyl)-5-methoxy-4H-isoxazole-5-carbonyl]amino]tetrahydrofuran-3-carboxylate]
pest or weed control at 320 g/ha [1]: 80 to 100% | pest or weed control at 320 g/ha (Pharbitis purpurea): 80% | pest or weed control at 80 g/ha (Stellaria media): 90% | pest or weed control at 320 g/ha (Veronica persica): 80% | pest or weed control at 80 g/ha (Polygonum convolvulus): 80%

COC(=O)C1COCC1NC(=O)[C@@]1(C)CC(c2cc(F)cc(F)c2)=NO1 (stereo partly drawn) [I-28, methyl 4-[[(5R)-3-(3,5-difluorophenyl)-5-methyl-4H-isoxazole-5-carbonyl]amino]tetrahydrofuran-3-carboxylate]
pest or weed control at 320 g/ha (Amaranthus retroflexus): 80% | pest or weed control at 320 g/ha [1]: 80 to 100% | pest or weed control at 320 g/ha (Pharbitis purpurea): 80% | pest or weed control at 80 g/ha (Stellaria media): 100% | pest or weed control at 320 g/ha (Veronica persica): 90%

COC(=O)C1COCC1NC(=O)C1(OC)CC(c2cc(Cl)cc(Cl)c2)=NO1 (stereo not drawn) [I-29, methyl 4-[[3-(3,5-dichlorophenyl)-5-methoxy-4H-isoxazole-5-carbonyl]amino]tetrahydrofuran-3-carboxylate]
pest or weed control at 320 g/ha [1]: 80 to 100% | pest or weed control at 320 g/ha (Pharbitis purpurea): 80% | pest or weed control at 80 g/ha (Stellaria media): 90% | pest or weed control at 320 g/ha (Veronica persica): 90% | pest or weed control at 80 g/ha (Polygonum convolvulus): 100%

COC(=O)C1=C[C@H](NC(=O)C2(C)CC(c3cccc(F)c3)=NO2)CO1 (stereo partly drawn) [I-39, methyl (3S)-3-[[3-(3-fluorophenyl)-5-methyl-4H-isoxazole-5-carbonyl]amino]-2,3-dihydrofuran-5-carboxylate]
pest or weed control at 320 g/ha (Amaranthus retroflexus): 80% | pest or weed control at 320 g/ha (Pharbitis purpurea): 90% | pest or weed control at 320 g/ha (Veronica persica): 80% | pest or weed control at 80 g/ha (Polygonum convolvulus): 80%

COC(=O)[C@@]1(OC)C[C@@H](NC(=O)C2(C)CC(c3cccc(F)c3)=NO2)CO1 (stereo partly drawn) [I-47, methyl (2R,4R)-4-[[3-(3-fluorophenyl)-5-methyl-4H-isoxazole-5-carbonyl]amino]-2-methoxytetrahydrofuran-2-carboxylate]
pest or weed control at 320 g/ha (Pharbitis purpurea): 90% | pest or weed control at 320 g/ha (Veronica persica): 80% | pest or weed control at 80 g/ha (Polygonum convolvulus): 90%

From patent US11597724B2, “Herbicidally active 3-phenylisoxazoline-5-carboxamides of tetrahydro and dihydrofuran carboxylic acids and esters” (Bayer Aktiengesellschaft, priority 2017, dated 2023)
